Laboratory results from patent US20050037033A1, “Microbicidal compositions and methods and use” (priority 2003, published 2005).

Experiments:
Assay type in all cases: cell-based
[1] = test system: HIV-1 strain BaL (R5 strain); experiment: Viral entry/binding inhibition assay (VBI), strain BaL; settings: Human immunodeficiency virus 1, Series 2, P4-R5 cells, 2 hour incubation, read-out: 50% Effective Concentrations (IC50)
Method: Viral entry inhibition assay (VBI): Cell-free HIV-1 (strain III-B: X4 strain; or strain BaL: R5 strain) was incubated with compound and P4-R5 cells for 2 hours at 37° C., followed by washing and 48 hour incubation.

Mobiluncus curtisii = experiment: Anaerobe inhibition assay; settings: 2 strains, read-out: Minimum Inhibitory Concentrations (MICs)
Porphyromonas levii = experiment: Anaerobe inhibition assay; settings: 2 strains, read-out: Minimum Inhibitory Concentrations (MICs)

In the case of Cc1cc(C2CCCCC2)n(O)c(=O)c1.NCCO [CO, 6-Cyclohexyl-1-hydroxy-4-methyl-2-(1H)-pyridone ethanolamine salt], the IC50 [1] is reported as 6.9 µg/mL, the MIC (Mobiluncus curtisii) is reported as 40 µg/mL and the MIC (Porphyromonas levii) is reported as 40 µg/mL.
